# Results taken from US11058717B2, “Application of substances containing AuCs in preparing medicine for preventing and treating Alzheimer's disease” (Shenzhen Profound-View Pharma Tech Co., Ltd, priority 2017, dated 2021).
# Key:
# Aβ(1-40) = biological target: T1, Aβ(1-40) (Homo sapiens, UniProt P05067); assay: AFM topography of Aβ(1-40) after coincubation for 48 h; type: biochemical; conditions: coincubated for 48 h
# T1 construct: Freeze-dried powder of amyloid polypeptide Aβ(1-40) (Invitrogen Corp.); purchased Invitrogen Corp
# Experimental: Panel A is the AFM topography after Aβ(1-40) was incubated alone for 48 h. Panel B is an AFM topography after Aβ(1-40) was coincubated with L-NIBC for 48 h. Panel C and panel D are AFM topographies after Aβ(1-40) was coincubated with gold nanoparticles with an average particle size of 6.0 nm and 3.6 nm respectively (modified with L-NIBC) for 48 h. And panel E is an AFM topography after Aβ(1-40) was coincubated with AuCs in an average particle size of 1.8 nm (modified with L-NIBC) for 48 h.
# α-syn = biological target: T2, α-syn (Homo sapiens, UniProt P37840); assay: In vitro α-syn aggregation kinetics (ThT fluorescent labeling); type: biochemical; conditions: L-NIBC only, 1.0 and 10.0 ppm; 35 μM α-syn, 37° C.
# T2 construct: purchased Bachem Corp
# Text: Thioflavin T (abbreviation: ThT) is a dye for dyeing amyloid fibers specifically. […] When it encounters amyloid polypeptide or protein with a fiber structure, it will immediately couple with the amyloid polypeptides or proteins and its fluorescence intensity will increase exponentially. For this reason, ThT is widely used as markers to monitor amyloidosis of peptides or proteins. This embodiment utilizes ThT fluorescent labeling method to monitor the kinetics process of fibrosis aggregation of α-syn with the existence of AuCs. The specific experiment method was as follows:
# Pretreatment of α-syn monomers: Freeze-dried powder (Bachem Corp.) of α-syn was dissolved in HFIP to obtain a 1 g/L α-syn solution. The solution was incubated at room temperature for 2-4 h after sealing, then blowed to dry HFIP by high-purity nitrogen in a fume hood. […]
# Sample preparation and detection: Ligand-modified AuCs in different concentrations listed in Table 1 were added to 35 μM α-syn PBS solutions respectively, and incubated continuously in a 96-well plate at 37° C., by ThT fluorescent labeling method, and were monitored the fluorescence intensity by microplate reader once every 10 minutes. The kinetic process of α-syn aggregation was characterized through the change of fluorescence intensity of ThT. […]
# [1] = tested on: SH-SY5Y neuroblastoma cell line; assay: Aβ induced AD cell model, cell viability by CCK-8; type: cell-based; conditions: 0.01-20 ppm (L-NIBC 20 ppm); 20 μM Aβ(1-40), 24 h
# Experimental: The cell viability was used as an index in the experiment of this embodiment. […] The cells used in the experiment were SH-SY5Y neuroblastoma cell line. […] Specific method:
# 1) SH-sy5y cells (cells had passed to the sixth generation) in logarithmic growth phase were diluted with complete medium (MEM+10% FBS+1% penicillin-streptomycin) to get a cell suspension in a density of 5×10^4/mL. The suspension was inoculated 200 μL per well into a 96-well plate, and cultivated in an incubator with 5% CO2 at 37° C. A sample was added when the cells attached to the wells.
# 2) 100 μL ligand-modified AuCs samples or ligand-modified gold nanoparticles samples, at different particle sizes and at concentrations of 0.04 ppm, 0.4 ppm, 4 ppm, 20 ppm, 40 ppm and 80 ppm respectively, which were dissolved by maintenance medium (MEM+2% FBS+1% penicillin-streptomycin) were added into the incubated suspension obtained from Step 1). After incubating in the incubator for 2 h, 100 μL 80 μM Aβ(1-40) was added, and then the mixture was incubated in the incubator for 24 h. […] The culture medium was removed, maintenance medium (MEM) containing 10% CCK-8 at 100 μL/well was added and was incubated for 4 h, the absorbance of each well at 450 nm was measured to reflect the prevention and treatment effects of ligand-modified AuCs on Aβ(1-40) lesion.
# T1 sequence (P05067 672-711 limits assumed): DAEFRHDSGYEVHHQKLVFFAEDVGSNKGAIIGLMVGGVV
structure (smiles),measurement,setting,value
"CC(C)C(=O)N[C@@H](CS)C(=O)O [L-NIBC, N-isobutyryl-L-cysteine]",Aβ(1-40) fibers in AFM topography,Aβ(1-40),no obvious effect on the formation of Aβ(1-40) fibers
same,effect on kinetics of α-syn aggregation,α-syn,did not have an obvious effect
same,effect on cell viability in Aβ induced AD cell model,[1],did not improve cell viability
